Legend:
[1] = test system: polluting algae of the Dianchi water; assay: Experiments on the shore of polluted lake Dianchi: acidization of the water by carbon dioxide; type: in vivo
Excerpt: (§1) Subsequent experiments have verified that the extermination occurred when the pH value of the water is reduced to 5.8 or less. Dead algal remains can be filtered out when acidized polluted water by the new filtering system of aquitransistor/filter, and the filtered water is suitable as source of urban water supply. […] Those discoveries and previous developments were patented to teach the use of carbon dioxide as algicide in environmental rehabilitation of polluted lakes and streams for urban water supply. The two Patent applications are:
The Dianchi water with pH values ranging up to 9 was reduced to less than 6, and the empirical rate was estimated in experiments to reduce the pH value by three units. The amount of dissolving carbon dioxide into alkaline waters to combate pollution is substantial. To suppress the algal growth in streams, ponds, swimming pools or fish tanks, the quantity of carbon dioxide required is small. The purpose is less to reduce carbon dioxide emission, but to maintain the cleanness of the water body. The growth of algae can be suppressed if the pH of water is maintained at 7, through the dissolution of carbon dioxide in water. The requirement is in the range of 10-100 grams carbon dioxide for one cubic-meter volume of water, depending the atmosphere-water interchange rate, and other factors. […] Since the main expenditure will be acidization, which is about 30$ per ton, the cost of maintaining algae-free swimming pool should be less than a few dollars per week. Very small metal containers for acidization of […] to produce carbon dioxide can be attached to fish tanks. The occasional bubbling of carbon dioxide to neutralize the alkalinity of water would not only be functional, but also fascinating to children owning the pet fish, and to their mother would not have to slave every month to clean up the algal pollution. Where medium or small quantifies of carbon dioxide are required, we recommend the use of carbon dioxide produced by the acidization of carbonates. The by-product CaCl2 is useful, but has little commercial value. […]

[2] = test system: green algae, blue-green algae and other polluting algae; assay: Experiments in Beijing: suppression of algal growth by keeping water pH low; type: in vivo
Excerpt: as §1
The Dianchi water with pH values ranging up to 9 was reduced to less than 6, and the empirical rate was estimated in experiments to reduce the pH value by three units. The amount of dissolving carbon dioxide into alkaline waters to combate pollution is substantial. To suppress the algal growth in streams, ponds, swimming pools or fish tanks, the quantity of carbon dioxide required is small. The purpose is less to reduce carbon dioxide emission, but to maintain the cleanness of the water body. The growth of algae can be suppressed if the pH of water is maintained at 7, through the dissolution of carbon dioxide in water. […] Where medium or small quantifies of carbon dioxide are required, we recommend the use of carbon dioxide produced by the acidization of carbonates. […]

SMILES: O=C=O [carbon dioxide]
- extermination of polluting algae after acidization of the water ([1]; Dianchi lake water acidized by carbon dioxide): all be exterminated
- empirical rate of CO2 to reduce the pH value by three units ([1]; Dianchi water, pH up to 9 reduced to less than 6): 2 kg CO2 per ton water
- pH of Dianchi water after treatment ([1]; starting pH values ranging up to 9, 2 kg CO2 per ton water): less than 6 pH
- pH value of the water at which extermination occurred ([1]; water acidized by carbon dioxide): ≤ 5.8 pH
- pH value of water at which algal growth is suppressed ([2]; pH kept at this value or below): ≤ 7.0 pH
- carbon dioxide requirement to suppress algal growth (pH maintained at 7) ([2]; streams, ponds, swimming pools or fish tanks, depends on atmosphere-water interchange rate): 10-100 grams carbon dioxide for one cubic-meter volume of water
